From patent US12139729B2, “Neurodegenerative disorders” (priority 2013, dated 2024)
Like-named read-outs stand apart in the source and are kept apart here. No end group written: not given here.

Key:
[1] = cited from earlier work
[2] = target: allosteric site on the α7 nicotinic-receptor (Rattus norvegicus, UniProt Q05941); assay: Binding affinity for the allosteric site of the α7 nicotinic-receptor, using tests for viability
PC12 cells = assay: Sulforhodamine B (SRB) cell viability assay; assay type: cell-based
Experimental: (§1) Wild-type PC12 cell were provided by Sigma-Aldrich (St. Louis, MO). The culture was routinely plated in 100 mm dishes (Corning) coated with collagen (2 μg/cm^2) and maintained in growth medium with Minimum Essential Medium Eagle (MEM) supplemented with heat-inactivated 10% horse serum (HS) and 5% foetal bovine serum (FBS), 10 mM HEPES, 2 mM L-Glutamine and 1:400 Penicillin/streptomycin solution. Cells were maintained at 37° C. in a humidified atmosphere 5% CO2 and the medium was replaced every 2 days. For splitting, cells were dislodged from the dish using a pipette with medium, with a portion of these replated onto new cultured dishes. Cells were used between passages 12 and 25.
(§2) The cell viability assay used was the sulforhodamine B (SRB) colorimetric assay for toxicity screening. The day before of the experiment cells were seeded onto collagen-coated 96-well plates in a concentration of 40,000 cells/well. Cell concentration was determined by the Fuchs-Rosenthal chamber. […] After treatment, medium was replaced and cells were fixed by adding 100 μl of 10% Trichloroacetic Acid (TCA) for 1 h at 4° C. Thereafter, cells were washed with H2O and stained with 100 μl of a 0.057% SRB solution in 1% Acetic acid (HAc) for 30 minutes at room temperature. After staining cells were washed with 1% HAc for removing the excess of SRB and then incubated with 200 μl of 10 mM Tris base (pH 10.5) and shake it for 5 minutes to solubilise the protein-bound dye. Measurement of the absorbance took place in a VMax Kinetic Microplate Reader (Molecular Devices) at 490 nm.

[3] = target: T1, α7nAChR (the α7 nicotinic acetylcholine receptor), allosteric site (Rattus norvegicus, UniProt Q05941); assay: [3H] Ivermectin binding assay on PC12 cell membranes
T1 construct: [3H]; host or cells: wild-type PC12 cells
Experimental: PC12 membranes where obtained to perform binding assays. PC12 cells were grown until confluence on 100 mm plates. Growth medium was removed and ice-cold 50 mM Tris-HCl buffer (pH 7.4) containing 4.5 μg/μ1 aprotinin and 0.1 mM phenylmethylsulphonylfluoride (PMSF) were added. Cells were mechanically detached and pelleted by centrifugation (1040×g) for 4 minutes at 4° C. Pellets were homogenized with a Polytron and centrifuged (13000×g) for 20 minutes at 4° C. The pellets were resuspended in fresh buffer and incubated at 37° C. for 10 minutes to remove endogenous neurotransmitters. The samples were subsequently re-centrifuged. The final pellet was resuspended in buffer and the protein concentration determined using the Bradford Reagent (Sigma-Aldrich, St. Louis, MO). The cell membrane preparation was stored at −80° C.
For the binding with PC12 membranes, each incubation was performed in polystyrene tube (VWR International Ltd; Leicestershire, UK) containing 0.25 ml of membranes diluted in Tris-HCl 50 mM buffer (containing 50 μg of PC12 membranes) with 5 nM [3H] […] Thereafter, samples were filtered through Brandel GB glass fibre filters (MD, USA); pre-soaked in 0.5% polyethylenemine by a Harvester (Brandel; MD, USA). Tubes were washed 3 times with ice cold 50 mM Tris-HCl buffer. Radioactivity in the tubes was counted by scintillation spectrometry using a 300 SL Liquid scintillation counter (Lablogic Systems Limited, UK). Specific binding was determined by subtracting the non-specific (cells treated with Ivermectin 30 μM) value to all the tubes.

[4] = Sulforhodamine B (SRB) cell viability assay; assay type: cell-based; details: 10 μM, 1 hour, PC12; read-out: cell viability, peptide alone
Experimental: as §1, §2

T1 sequence (Q05941 23-502): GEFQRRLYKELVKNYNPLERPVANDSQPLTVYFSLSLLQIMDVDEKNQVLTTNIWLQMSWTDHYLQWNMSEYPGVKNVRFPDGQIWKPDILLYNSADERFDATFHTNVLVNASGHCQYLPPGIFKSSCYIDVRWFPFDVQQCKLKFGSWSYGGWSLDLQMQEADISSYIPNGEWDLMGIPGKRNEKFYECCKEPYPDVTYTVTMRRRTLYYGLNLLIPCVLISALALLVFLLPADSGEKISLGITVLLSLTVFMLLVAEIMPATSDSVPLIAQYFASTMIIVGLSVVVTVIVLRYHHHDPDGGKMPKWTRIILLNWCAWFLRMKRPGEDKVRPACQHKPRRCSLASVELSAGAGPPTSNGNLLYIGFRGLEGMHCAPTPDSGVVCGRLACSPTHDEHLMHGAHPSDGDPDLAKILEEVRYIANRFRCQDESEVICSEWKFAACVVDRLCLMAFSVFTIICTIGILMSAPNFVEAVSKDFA
allosteric site on the α7 nicotinic-receptor, sequence (Q05941 23-502): as above

Molecule	bioavailability periphery (Table 3 feature) [1]	binding affinity for the allosteric site on the α7 nicotinic-receptor [2]	binding affinity for the allosteric site on the α7 nicotinic-receptor ([2]; listed as galanthamine) [µM]	affinity (Table 3 feature) ([2]; ✓ = Dream Drug feature 'Nanomolar affinity')	dose that blocks β-Amyloid (Table 3 feature) (PC12 cells; 'high doses')	minimum effective concentration against β-Amyloid (10 μM) on cell viability (PC12 cells; PC12, FIG. 8) [nM]	% [3H] Ivermectin binding (Mean ± SEM) ([3]; 100 nM competitor, Table 2, N = 6) [%]	% [3H] Ivermectin binding (Mean ± SEM) ([3]; 200 nM competitor, Table 2) [%]	% [3H] Ivermectin binding (Mean ± SEM) ([3]; 500 nM competitor, Table 2) [%]	% [3H] Ivermectin binding (Mean ± SEM) ([3]; 700 nM competitor, Table 2) [%]	% [3H] Ivermectin binding (Mean ± SEM) ([3]; 1 μM competitor, Table 2) [%]	% [3H] Ivermectin binding (Mean ± SEM) ([3]; 2 μM competitor, Table 2) [%]	viability at 10 µM [4] [%]	% [3H] Ivermectin binding (Mean ± SEM) ([3]; 1 nM competitor, Table 1) [%]	% [3H] Ivermectin binding (Mean ± SEM) ([3]; 10 nM competitor, Table 1) [%]	% [3H] Ivermectin binding (Mean ± SEM) ([3]; 100 nM competitor, Table 1) [%]	% [3H] Ivermectin binding (Mean ± SEM) ([3]; 1 μM competitor, Table 1) [%]	% [3H] Ivermectin binding (Mean ± SEM) ([3]; 5 μM competitor, Table 1) [%]
COc1ccc2c3c1O[C@H]1C[C@@H](O)C=C[C@@]31CCN(C)C2 [Galanthamine]	High bioavailability	low affinity	10	Micromolar affinity	doses (0.1 μM)	100	100.00 ± 11.48	97.86 ± 1.40	90.96 ± 1.87	69.68 ± 9.87	67.17 ± 6.64	66.32 ± 4.29	–	–	–	–	–	–
AEFHRWSSYMVHWK [T14]	–	0.005 µM	–	–	–	–	–	–	–	–	–	–	83 ± 5.38	100 ± 9.91	90.92 ± 2.38	88.92 ± 3.82	85.17 ± 3.03	85.36 ± 3.96
